{
  "source": "patent US8962608B2",
  "about": "“Cycloalkylnitrile pyrazole carboxamides as janus kinase inhibitors” (Merck Sharp & Dohme Corp., priority 2011, dated 2015);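 note: biochemical assay with HTRF read-out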",
  "data": [
    {"biological_target": "JAK1 (recombinant purified GST-tagged catalytic domain) (Homo sapiens (Human), UniProt P23458)", "sequence (P23458 875-1153)": "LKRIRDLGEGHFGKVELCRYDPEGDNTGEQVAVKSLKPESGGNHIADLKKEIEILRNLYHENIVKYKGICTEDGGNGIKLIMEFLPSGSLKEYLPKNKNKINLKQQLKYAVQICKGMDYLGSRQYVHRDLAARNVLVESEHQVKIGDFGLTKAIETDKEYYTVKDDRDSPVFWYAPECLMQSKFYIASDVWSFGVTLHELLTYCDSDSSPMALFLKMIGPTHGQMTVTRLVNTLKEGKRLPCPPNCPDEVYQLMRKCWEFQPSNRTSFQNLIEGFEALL", "test": "biochemical", "units": {"IC50": "nM"}, "values": [
      {"smiles": "N#C[C@H]1C[C@@H](N2CC(O)C2)CC[C@@H]1n1cc(C(N)=O)c(Nc2ccc(S(=O)(=O)C(F)(F)F)cc2)n1", "note": "(single isomer, unassigned) [Example 28-151, 1-[(1S,2S,4S or 1R,2R,4R)-2-cyano-4-(3-hydroxyazetidin-1-yl)cyclohexyl]-3-({4-[(trifluoro-methyl)sulfonyl]phenyl}amino)-1H-pyrazole-4-carboxamide]", "IC50": 0.13},
      {"smiles": "N#C[C@H]1CC(NC2COC2)CC[C@@H]1n1cc(C(N)=O)c(Nc2ccc(S(=O)(=O)C(F)(F)F)cc2)n1", "note": "(single isomer, unassigned) [Example 28-155, 1-[(1S,2S or 1R,2R)-2-cyano-4-(oxetan-3-ylamino)cyclohexyl]-3-({4-[(trifluoromethyl)sulfonyl]phen-yl}amino)-1H-pyrazole-4-carboxamide]", "IC50": 0.22},
      {"smiles": "CN(CCC(F)(F)F)[C@@H]1CC[C@H](n2cc(C(N)=O)c(Nc3ccc(S(=O)(=O)C(F)(F)F)cc3)n2)[C@@H](C#N)C1", "note": "(single isomer, unassigned) [Example 28-170, 1-{(1S,2S,4R or 1R,2R,4S)-2-cyano-4-[methyl(3,3,3-trifluoropropyl)amino]cyclohexyl}-3-({4-[(trifluoromethyl)sulfonyl]phen-yl]amino)-1H-pyrazole-4-carboxamide]", "IC50": 11},
      {"smiles": "CN(CCC(F)(F)F)[C@H]1CC[C@H](n2cc(C(N)=O)c(Nc3ccc(S(=O)(=O)C(F)(F)F)cc3)n2)[C@@H](C#N)C1", "note": "(single isomer, unassigned) [Example 28-171, 1-{(1S,2S,4S or 1R,2R,4R)-2-cyano-4-[methyl(3,3,3-tri-fluoropropyl)amino]cyclohexyl}-3-({4-[(trifluoromethyl)sulfonyl]phen-yl}amino)-1H-pyrazole-4-carboxamide]", "IC50": 2},
      {"smiles": "CC(C)N[C@H]1CC[C@H](n2cc(C(N)=O)c(Nc3ccc(S(=O)(=O)C(F)(F)F)cc3)n2)[C@@H](C#N)C1", "note": "(single isomer, unassigned) [Example 28-174, 1-{(1S,2S,4S or 1R,2R,4R)-2-cyano-4-[(1-methylethyl)amino]cyclohexy}-3-({4-[(trifluoro-methyl)sulfonyl]phenyl}amino)-1H-pyrazole-4-carboxamide]", "IC50": 0.15},
      {"smiles": "CC(C)N[C@@H]1CC[C@H](n2cc(C(N)=O)c(Nc3ccc(S(=O)(=O)C(F)(F)F)cc3)n2)[C@@H](C#N)C1", "note": "(single isomer, unassigned) [Example 28-175, 1-{(1S,2S,4R or 1R,2R,4S)-2-cyano-4-[(1-methylethyl)amino]cyclohexyl}-3-({4-[(trifluoro-methyl)sulfonyl]phenyl}amino)-1H-pyrazole-4-carboxamide]", "IC50": 0.35},
      {"smiles": "N#C[C@H]1C[C@@H](N2CC(O)(C(F)(F)F)C2)CC[C@@H]1n1cc(C(N)=O)c(Nc2ccc(C(F)(F)F)cc2)n1", "note": "(single isomer, unassigned) [Example 28-200, 1-{(1S,2S,4S or 1R,2R,4R)-2-cyano-4-[3-hydroxy-3-(trifluoromethyl)azetidin-1-yl]cyclohexyl}-3-{[4-(trifluoromethyl)phenyl]amino}-nvrazole-4-carboxamide]", "IC50": 1},
      {"smiles": "N#C[C@H]1C[C@H](N2CC(O)(C(F)(F)F)C2)CC[C@@H]1n1cc(C(N)=O)c(Nc2ccc(C(F)(F)F)cc2)n1", "note": "(single isomer, unassigned) [Example 28-201, 1-{(1S,2S,4R or 1R,2R,4S)-2-cyano-4-[3-hydroxy-3-(trifluoromethyl)azetidin-1-yl]cyclohexyl}-3-{[4-(trifluoromethyl)phenyl]amino}-1H-pyrazole-4-carboxamide]", "IC50": 2},
      {"smiles": "CC1(N[C@@H]2CCC(n3cc(C(N)=O)c(Nc4ccc(Cl)cc4)n3)[C@@H](C#N)C2)CC1", "note": "(single isomer, unassigned) [Example 28-206, 3-[(4-chlorophenyl)amino]-1-{(1S,2S,4R or 1R,2R,4S)-2-cyano-4-[(1-methylcyclopropyl)amino]cyclo-hexyl}-1H-pyrazole-4-carboxamide]", "IC50": 12},
      {"smiles": "N#C[C@H]1C[C@@H](N2CC(O)(C(F)(F)F)C2)CCC1n1cc(C(N)=O)c(Nc2ccc(Cl)cc2)n1", "note": "(single isomer, unassigned) [Example 28-213, 3-[(4-chlorophenyl)amino]-1-{(1S,2S,4S or 1R,2R,4R)-2-cyano-4-[3-hydroxy-3-(trifluoromethyl)azetidin-1-yl]cyclohexyl}-1H-pyrazole-4-carboxamide]", "IC50": 1},
      {"smiles": "N#C[C@H]1C[C@@H](NC2CCOCC2)CCC1n1cc(C(N)=O)c(Nc2ccc(Cl)cc2)n1", "note": "(single isomer, unassigned) [Example 28-218, 3-[(4-chlorophenyl)amino]-1-[(1S,2S,4S or 1R,2R,4R)-2-cyano-4-(tetrahydro-2H-pyran-4-ylamino)cyclohexyl]-1H-pyrazole-4-carboxamide]", "IC50": 4},
      {"smiles": "COCC(C)(C)N[C@H]1CCC(n2cc(C(N)=O)c(Nc3ccc(Cl)cc3)n2)[C@@H](C#N)C1", "note": "(single isomer, unassigned) [Example 28-222, 3-[(4-chlorophenyl)amino]-1-{(1S,2S,4S or 1R,2R,4R)-2-cyano-4-[(2-methoxy-1,1-dimethylethyl)amino]cyclo-hexyl}-1H-pyrazole-4-carboxamide]", "IC50": 0.8},
      {"smiles": "N#C[C@H]1C[C@@H](NCC(F)(F)F)CC[C@@H]1n1cc(C(N)=O)c(Nc2ccc(Cl)cc2)n1", "note": "(single isomer, unassigned) [Example 28-224, 3-[(4-chlorophenyl)amino]-1-{(1S,2S,4S or 1R,2R,4R)-2-cyano-4-[(2,2,2-trifluoroethyl)amino]cyclo-hexyl}-1H-pyrazole-4-carboxamide]", "IC50": 3},
      {"smiles": "N#C[C@H]1C[C@H](NCC(F)(F)F)CC[C@@H]1n1cc(C(N)=O)c(Nc2ccc(Cl)cc2)n1", "note": "(single isomer, unassigned) [Example 28-225, 3-[(4-chlorophenyl)amino]-1-{(1S,2S,4R or 1R,2R,4S)-2-cyano-4-[(2,2,2-trifluoroethyl)amino]cyclohexyl}-1H-pyrazole-4-carboxamide]", "IC50": 12},
      {"smiles": "CN([C@H]1CCC(n2cc(C(N)=O)c(Nc3ccc(Cl)cc3)n2)[C@@H](C#N)C1)C(C)(C)C1CC1", "note": "(single isomer, unassigned) [Example 28-229, 3-[(4-chlorophenyl)amino]-1-{(1S,2S,4S or 1R,2R,4R)-2-cyano-4-[(1-cyclopropyl-1-methylethyl)(methyl)amino]cyclo-hexyl}-1H-pyrazole-4-carboxamide]", "IC50": 1},
      {"smiles": "COCC(C)(C)N[C@H]1CCC(n2cc(C(N)=O)c(Nc3ccccc3)n2)[C@@H](C#N)C1", "note": "(single isomer, unassigned) [Example 28-231, 1-{(1S,2S,4S or 1R,2R,4R)-2-cyano-4-[(2-methoxy-1,1-dimethylethyl)amino]cyclo-hexyl}-3-(phenylamino)-1H-pyrazole-4-carboxamide]", "IC50": 16},
      {"smiles": "COCC(C)(C)N(C)[C@H]1CCC(n2cc(C(N)=O)c(Nc3ccc(Cl)cc3)n2)[C@@H](C#N)C1", "note": "(single isomer, unassigned) [Example 28-234, 3-[(4-chlorophenyl)amino]-1-{(1S,2S,4S or 1R,2R,4R)-2-cyano-4-[(2-methoxy-1,1-dimethylethyl)(methyl)ami-no]cyclohexyl}-1H-pyrazole-4-carboxamide]", "IC50": 2},
      {"smiles": "COCC(C)N[C@H]1CCC(n2cc(C(N)=O)c(Nc3ccc(Cl)cc3)n2)[C@@H](C#N)C1", "note": "(single isomer, unassigned) [Example 28-237, 3-[(4-chlorophenyl)amino]-1-[(1S,2S,4S or 1R,2R,4R)-2-cyano-4-{[(1S)-2-methoxy-1-methylethyl]amino}cyclohexyl]-1H-pyrazole-4-carboxamide]", "IC50": 1},
      {"smiles": "COCC(C)N[C@H]1CCC(n2cc(C(N)=O)c(Nc3ccc(Cl)cc3)n2)[C@@H](C#N)C1", "note": "(single isomer, unassigned) [Example 28-238, 3-[(4-chlorophenyl)amino]-1-[(1S,2S,4S or 1R,2R,4R)-2-cyano-4-{[(1S)-2-methoxy-1-methylethyl]amino}cyclohexyl]-1H-pyrazole-4-carboxamide]", "IC50": 2},
      {"smiles": "CC(C)(O)C1CC(CN[C@H]2CC[C@@H](n3cc(C(N)=O)c(Nc4ccc(C(F)(F)F)cc4)n3)[C@H](C#N)C2)C1", "note": "(single isomer, unassigned) [Example 30-4, 1-[(1R,2R,4S or 1S,2S,4R)-2-cyano-4-({[3-(1-hydroxy-1-methylethyl)cyclo-butyl]methyl}amino)cyclo-hexyl]-3-{[4-(trifluoro-methyl)phenyl]amino}-1H-pyrazole-4-carboxamide]", "IC50": 1},
      {"smiles": "CC(C)CN(CC1CC1)[C@H]1CC[C@@H](n2cc(C(N)=O)c(Nc3ccc(C(F)(F)F)cc3)n2)[C@H](C#N)C1", "note": "(single isomer, unassigned) [Example 30-9, l-{(1R,2R,4S or 1S,2S,4R)-2-cyano-4-[(cyclopropylmethyl)(2-methylpropyl)amino]cyclo-hexyl}-3-{[4-(trifluoromethyl)phenyl]amino}-1H-pyrazole-4-carboxamide]", "IC50": 16},
      {"smiles": "C=C[C@]1(O)CC[C@H](n2cc(C(N)=O)c(Nc3ccc(Cl)cc3)n2)[C@@H](C#N)C1", "note": "(single isomer, unassigned) [Example 32-5, 3-[(4-chlorophenyl)amino]-1-[(1S,2S,4S or 1R,2R,4R)-2-cyano-4-ethenyl-4-hydroxycyclohexyl]-1H-pyrazole-4-carboxamide]", "IC50": 3},
      {"smiles": "C[C@@]1(O)CC[C@H](n2cc(C(N)=O)c(Nc3ccc(Cl)c(F)c3)n2)[C@@H](C#N)C1", "note": "(single isomer, unassigned) [Example 32-7, 3-[(4-chloro-3-fluorophenyl)amino]-1-[(1S,2S,4R or 1R,2R,4S)-2-cyano-4-hydroxy-4-methylcyclohexyl]-1H-pyrazole-4-carboxamide]", "IC50": 5},
      {"smiles": "C[C@]1(O)CC[C@H](n2cc(C(N)=O)c(Nc3ccc(Cl)cc3)n2)[C@@H](C#N)C1", "note": "(single isomer, unassigned) [Example 32-10, 3-[(4-chlorophenyl)amino]-1-[(1S,2S,4S or 1R,2R,4R)-2-cyano-4-hydroxy-4-methylcyclohexyl]-1H-pyrazole-4-carboxamide]", "IC50": 1},
      {"smiles": "N#C[C@H]1C[C@](O)(C2CC2)CC[C@@H]1n1cc(C(N)=O)c(Nc2ccc(Cl)cc2)n1", "note": "(single isomer, unassigned) [Example 32-12, 3-[(4-chlorophenyl)aminol-1-[(1S,2S,4S or 1R,2R,4R)-2-cyano-4-cyclopropyl-4-hydroxycyclohexyl]-1H-pyrazole-4-carboxamide]", "IC50": 1}
    ]}
  ]
}
